Results on 18 compounds are retold here after patent US10570148B2, “N-alkyl-2-phenoxyethanamines, their preparation and use” (The Trustees of Columbia University In the City of New York, priority 2013, dated 2020).

Data set [1] deals with T1, RBP4 (Homo sapiens, UniProt P02753). Description: Scintillation proximity RBP4 binding assay (SPA). The arrangement: Untagged human RBP4 purified from urine of tubular proteinuria patients; purchased Fitzgerald Industries International; host or cells: urine of tubular proteinuria patients. The following applies: analogs, present-tense paper example. Here is the method:
Scintillation Proximity RBP4 Binding Assay
Untagged human RBP4 purified from urine of tubular proteinuria patients was purchased from Fitzgerald Industries International. It was biotinylated using the EZ-Link Sulfo-NHS-LC-Biotinylation kit from Pierce following the manufacturer's recommendations. Binding experiments were performed in 96-well plates (OptiPlate, PerkinElmer) in a final assay volume of 100 μl per well in SPA buffer (1×PBS, pH 7.4, 1 mM EDTA, 0.1% BSA, 0.5% CHAPS). The reaction mix contained 10 nM ^3H-Retinol (48.7 Ci/mmol; PerkinElmer), 0.3 mg/well Streptavidin-PVT beads, 50 nM biotinylated RBP4 and a test compound. Nonspecific binding was determined in the presence of 20 µM of unlabeled retinol. The reaction mix was assembled in the dark under dim red light. The plates were sealed with clear tape (TopSeal-A: 96-well microplate, PerkinElmer), wrapped in the aluminum foil, and allowed to equilibrate 6 hours at room temperature followed by overnight incubation at +4° C. Radiocounts were measured using a TopCount NXT counter (Packard Instrument Company).
Background: Scintillation proximity formats need no separation of bound from free tracer.

Data set [2] has as its target T2, RBP4-TTR interaction (Homo sapiens, UniProt P02753). As to the kind of experiment: TR-FRET (HTRF) assay for retinol-induced RBP4-TTR interaction. Type of data set: biochemical. The arrangement: human RBP4 fragment (amino acids 19-201); host or cells: Gold(DE3)pLysS E. coli strain (Stratagene), pMAL-c4x vector. The following applies: analogs, present-tense paper example. From the text:
TR-FPET Assay for Retinol-induced RBP4-TTR Interaction
Binding of a desired RBP4 antagonist displaces retinol and induces hindrance for RBP4-TTR interaction resulting in the decreased FRET signal (FIG. 7). Bacterially expressed MBP-RBP4 and untagged TTR were used in this assay. For the use in the TR-FRET assay the maltose binding protein (MBP)-tagged human RBP4 fragment (amino acids 19-201) was expressed in the Gold(DE3)pLysS E. coli strain (Stratagene) using the pMAL-c4x vector. Following cell lysis, recombinant RBP4 was purified from the soluble fraction using the ACTA FPLC system (GE Healthcare) equipped with the 5-ml the MBP Trap HP column. Human untagged TTR was purchased from Calbiochem. Untagged TTR was labeled directly with Eu^3+ Cryptate-NHS using the HTRF Cryptate Labeling kit from CisBio following the manufacturer's recommendations. HTRF assay was performed in white low volume 384 well plates (Greiner-Bio) in a final assay volume of 16 μl per well. The reaction buffer contained 10 mM Tris-HCl pH 7.5, 1 mM DTT, 0.05% NP-40, 0.05% Prionex, 6% glycerol, and 400 mM KF. Each reaction contained 60 nM […] and 2 nM TTR-Eu along with 26.7 nM of anti-MBP antibody conjugated with d2 (Cisbio). Titration of test compounds in this assay was conducted in the presence of 1 μM retinol. All reactions were assembled in the dark under dim red light and incubated overnight at +4° C. wrapped in aluminum foil. TR-FRET signal was measured in the SpectraMax M5e Multimode Plate Reader (Molecular Device). Fluorescence was excited at 337 nm and two readings per well were taken: Reading 1 for time-gated energy transfer from Eu(K) to d2 (337 nm excitation, […] emission, counting delay 75 microseconds, counting window 100 microseconds) and Reading 2 for Eu(K) time-gated fluorescence (337 nm excitation, 620 rum emission, counting delay 400 microseconds, counting window 400 microseconds). The TR-FRET signal was expressed as the ratio of fluorescence intensity: Flu665/Flu620×10,000.
(In general: Time-resolved FRET reads energy transfer from a long-lived donor to a nearby acceptor.)

For data set [3] the following is noted: in vivo; cited from earlier work.
Another data set deals with Abca4−/− mice. The settings on record: cited from earlier work.
The next data set concerns mice. The settings on record: cited from earlier work.
Data set [4] addresses T2, RBP4-TTR interaction. The settings on record: cited from earlier work.
Data set [5] deals with T1, RBP4. The following applies: cited from earlier work.
For data set [6], the system named is retinal pigment epithelium cells. The following applies: many cell types, including the retinal pigment epithelium cells; cited from earlier work.

For `CN(CCOc1ccccc1C(C)(C)C)C(=O)c1c[nH]nn1` [Compound 12, N-(2-(2-(Tert-butyl)phenoxy)ethyl)-N-methyl-1H-1,2,3-triazole-5-carboxamide], the melting point – broadly, the temperature, or range, at which the solid turns liquid – lay within 148 to 151 °C. The same measure, in the same setting: with `CN(CCOc1ccccc1C(C)(C)C)C(=O)C(=O)O` [Compound 13, 2-((2-(2-(Tert-butyl)phenoxy)ethyl)(methyl)amino)-2-oxoacetic Acid] the figure was 98 to 101 °C.

`CC(C)c1ccccc1OCCN(C)C(=O)Nc1ccccc1C(=O)O` [Compound 17, 2-(3-(2-(2-Isopropylphenoxy)ethyl)-3-methylureido)benzoic Acid] showed a melting point of 146 to 149 °C.

`CN(CCOc1ccccc1C(C)(C)C)C(=O)Nc1ccncc1C(=O)O` [Compound 18, 4-(3-(2-(2-(tert-butyl)phenoxy)ethyl)-3-methylureido)nicotinic Acid] displayed a melting point of 218 to 220 °C.

As to `CN(CCOc1ccc(Cl)cc1C(C)(C)C)C(=O)c1cn2ncccc2n1` [Compound 21, N-(2-(2-(tert-butyl)-4-chlorophenoxy)ethyl)-N-methylimidazo[1,2-b]pyridazine-2-carboxamide], the melting point fell in the range of 73 to 78 °C.

Consider `CN(CCOc1ccccc1C(C)(C)C)C(=O)c1n[nH]c2ccc(F)cc12` [Compound 22, N-(2-(2-(tert-butyl)phenoxy)ethyl)-5-fluoro-N-methyl-1H-indazole-3-carboxamide], for which the melting point lay in the range of 186 to 190 °C. Still for that read-out and setting: for `CN(CCOc1ccccc1C(C)(C)C)C(=O)c1cn2ncccc2n1` [Compound 23, N-(2-(2-(Tert-butyl)phenoxy)ethyl)-N-methylimidazo[1,2-b]pyridazine-2-carboxamide] the value was 75 to 80 °C; for `CN(CCOc1ccccc1C(C)(C)C)C(=O)c1n[nH]c2ncccc12` [Compound 24, N-(2-(2-(Tert-butyl)phenoxy)ethyl)-N-methyl-1H-pyrazolo[3,4-b]pyridine-3-carboxamide], 157 to 159 °C; for `CN(CCOc1ccccc1C(C)(C)C)C(=O)c1nnc2n1CCOC2` [Compound 25, N-(2-(2-(Tert-butyl)phenoxy)ethyl)-N-methyl-6,8-dihydro-5H-[1,2,4]triazolo[3,4-c][1,4]oxazine-3-carboxamide], 116 to 120 °C. Same read-out and setting: with `CN(CCOc1ccccc1C(C)(C)C)C(=O)c1n[nH]c2c1CN(S(C)(=O)=O)C2` [Compound 28, N-(2-(2-(Tert-butyl)phenoxy)ethyl)-N-methyl-5-(methylsulfonyl)-1,4,5,6-tetrahydropyrrolo[3,4-c]pyrazole-3-carboxamide] the figure was 125 to 133 °C; with `CN(CCOc1ccccc1C(C)(C)C)C(=O)c1n[nH]c2c1CN(S(C)(=O)=O)CC2` [Compound 30, N-(2-(2-(tert-butyl)phenoxy)ethyl)-N-methyl-5-(methylsulfonyl)-4,5,6,7-tetrahydro-1H-pyrazolo[4,3-c]pyridine-3-carboxamide], 226 to 230 °C. The same measure, in the same setting: for `CN(CCOc1ccccc1C(C)(C)C)C(=O)c1n[nH]c2c1CCN(S(C)(=O)=O)C2` [Compound 33, N-(2-(2-(Tert-butyl)phenoxy)ethyl)-N-methyl-6-(methylsulfonyl)-4,5,6,7-tetrahydro-1H-pyrazolo[3,4-c]pyridine-3-carboxamide] the value was 233 to 237 °C. Turning to `CN1CCc2c(C(=O)N(C)CCOc3ccccc3C(C)(C)C)n[nH]c2C1` [Compound 34, N-(2-(2-(Tert-butyl)phenoxy)ethyl)-N,6-dimethyl-4,5,6,7-tetrahydro-1H-pyrazolo[3,4-c]pyridine-3-carboxamide], the melting point fell in the range of 159 to 161 °C.

As to `COC(=O)c1cc(C)nc(N(C)CCOc2ccccc2C(C)(C)C)n1` [Compound 36, methyl 2-((2-(2-(tert-butyl)phenoxy)ethyl)(methyl)amino)-6-methylpyrimidine-4-carboxylate], the “RBP4 binding (SPA)” value at RBP4 [1] was “bind to RBP4”. Also, on RBP4-TTR interaction [2], the “antagonism of retinol-dependent RBP4-TTR interaction (HTRF)” value was “antagonize retinol-dependent RBP4-TTR interaction”. For `Cc1cc(C(=O)O)nc(N(C)CCOc2ccccc2C(C)(C)C)n1` [Compound 37, 2-((2-(2-(tert-butyl)phenoxy)ethyl)(methyl)amino)-6-methylpyrimidine-4-carboxylic acid], in that order: “bind to RBP4” and “antagonize retinol-dependent RBP4-TTR interaction”. With `COC(=O)c1cc(C)nc(N(C)CCOc2cc(C(F)(F)F)cc(C(F)(F)F)c2)n1` [Compound 38, methyl 2-((2-(3,5-bis(trifluoromethyl)phenoxy)ethyl)(methyl)amino)-6-methylpyrimidine-4-carboxylate], the “RBP4 binding (SPA)” value on RBP4 [1] is listed as “bind to RBP4”. Moreover, the “antagonism of retinol-dependent RBP4-TTR interaction (HTRF)” value at RBP4-TTR interaction [2] is given as “antagonize retinol-dependent RBP4-TTR interaction”. For `Cc1cc(C(=O)O)nc(N(C)CCOc2cc(C(F)(F)F)cc(C(F)(F)F)c2)n1` [Compound 39, 2-((2-(3,5-bis(trifluoromethyl)phenoxy)ethyl)(methyl)amino)-6-methylpyrimidine-4-carboxylic acid] the same measures were “bind to RBP4” and “antagonize retinol-dependent RBP4-TTR interaction”. As for `CC1=C(/C=C/C(C)=C/C=C/C(C)=C/C(=O)Nc2ccc(O)cc2)C(C)(C)CCC1` [fenretinide, N-(4-hydroxy-phenyl)retinamide], the “serum RBP4 and retinol” value in [3] is “reduce serum RBP4 and retinol”. Besides, the A2E production result with Abca4−/− mice (Abca4−/− mice, animal model of excessive bisretinoid accumulation) is listed as “reduced A2E production”. In the data set with Abca4−/− mice (mouse, in vivo), the “ocular all-trans retinol uptake” value is reported as “inhibit ocular all-trans retinol uptake” and the visual cycle entry is recorded as “slow down the visual cycle”. The formation of hemangiosarcomas entry with mice is “stimulate formation of hemangiosarcomas”. Moreover, the “disruption of the RBP4-TTR interaction” value at RBP4-TTR interaction [4] is reported as “disrupt the RBP4-TTR interaction”. In addition, at RBP4 [5], the “binding to RBP4” value is listed as “bind to RBP4” and the “displacement of all-trans retinol from RBP4” value was “displace all-trans retinol from RBP4”. For the same compound, in [6], the induction of apoptosis result is on record as “extremely active inducer of apoptosis”.
